# From PMC11858513, “Antibiofilm Activities of Tritrpticin Analogs Against Pathogenic Pseudomonas aeruginosa PA01 Strains” (Molecules, 2025)
# Residues, ends and D or L forms follow the SMILES beside them.
# Experiments:
# S. aureus GFP [1] = format: cell-based, Staphylococcus aureus; details: Table 4; Sa GFP; lowest concentration of peptide with no bacterial growth seen on the spot agar plate
# From the text: (§1) The methods to determine the MIC, MBIC and MBEC have been described in detail in our previous publication. The green fluorescent protein (GFP)-producing P. aeruginosa and S. aureus strains that were used in this work were also described in the earlier publication. Fluorescence detection was used as the main method to estimate the number of cells entrapped in the biofilm matrix. The methodology used for evaluation of the antibiofilm properties against an original Pseudomonas PA01 strain by crystal violet dye staining and the use of the Calgary biofilm device has been described elsewhere. The regular PA01 strain was provided by Dr. J. Harrison, Calgary. All measurements were carried out on an Eppendorf AF2200 plate reader. Every 96-well plate included controls for bacterial cell growth without peptide treatment and media alone. All measurements were carried out in triplicate, and the values in the figures represent the average and the error bars are standard deviation.
# S. aureus GFP [2] = test: MBEC, GFP fluorescence method; format: cell-based, Staphylococcus aureus; details: Table 4, Sa GFP, 10% TSB and 0.1% glucose, mean of three biological replicates
# Procedure: (§2) Figure 3 The MIC (A), MBIC (B) and MBEC (C) values for the tritrpticin analog peptides were assessed against Sa GFP. The MIC values were determined by measuring the absorbance of bacterial cells at 600 nm. The MBIC and MBEC values were determined by recording the fluorescence at 480 nm and 530 nm from the biofilms of GFP-expressing Sa. Three biological replicates were run for each test sample, and the mean was calculated for the recorded absorption or fluorescence values. In the graphs, the error bars represent the standard deviation (±SD).
# as §1
# P. aeruginosa PAO1 [3] = format: cell-based; details: for MBRC (CV at 595 nm) LD50: PAO1; for MBIC (CV at 595 nm) LD50 / MBIC (CV at 595 nm) LD90 / MBRC (CV at 595 nm) LD90: Table 5, PAO1, 1x BM2, crystal violet at 595 nm, mean of three biological replicates; for MBRC (CV at 595 nm) LD90: minimum biofilm reduction concentration
# Procedure: (§3) We note the close agreement with the MBIC and MBEC values determined by the fluorescence and CV methods, similar to what we found in our previous work for an S. aureus MRSA strain [23]. We also re-evaluated the MBEC values that are measured using the Calgary biofilm device (CBD), where biofilms form on pegs, rather than at the bottom of the 96-well plates. […] In particular, we find that the single Pro9Ala Tritrp-P9A-substituted version has better MIC, MBIC and MBEC activities than the parent peptide as well as the Tritrp-P59A analog with both prolines substituted to Ala.
# (§4) Figure 4 The MIC (A), MBIC (B) and MBRC (C) values for the peptides were assessed against P. aeruginosa PAO1 in the presence of 1× BM2. The inhibition of planktonic cells, the inhibition of biofilm cells and the reduction in biofilm cells were determined for the peptides by recording of the planktonic cells at 600 nm and quantification of biofilms formed by Pa PAO1 using crystal violet at 595 nm, respectively. Three biological replicates were run for each test sample, and the mean was calculated for the recorded absorption values. Data points with error bars indicate the standard deviation (±SD).
# (§5) Figure 6 The MIC (A), MBIC (B) and MBEC (C) values for the tritrpticin-Lys derivatives against P. aeruginosa PAO1 were assessed by the crystal violet (CV) assay for the measurement of inhibition of biofilm formation and eradication of biofilm cells, respectively. The biofilm cells were rinsed, stained with 0.1% crystal violet for 15 min and then rinsed again. The CV was released from biofilm cells by the addition of 95% ethanol and quantified by reading on a spectrometer at 595 nm. Three replicates were run for each sample, the values were averaged and the error bars represent the standard deviation (±SD).
# as §1
# P. aeruginosa PAO1 GFP [4] = test: MIC against planktonic cells, absorbance at 600 nm; format: cell-based, Pseudomonas aeruginosa; details: Table 2, BM2 medium, absorbance 600 nm, mean of three biological replicates
# Procedure: as §2, with “Figure 1” for “Figure 3”, “against Pa PAO1” for “against Sa”, “GFP-expressing PAO1.” for “GFP-expressing Sa.”
# (§6) Figure 2 The MIC (A), MBIC (B) and MBEC (C) values for the tritrpticin-Lys derivative peptides were assessed against Pa PAO1 GFP. The MIC values were determined by measuring the absorbance of bacterial cells at 600 nm. The MBIC and MBEC values were determined by recording the fluorescence at 480 nm and 530 nm from the biofilms of GFP-expressing PAO1. Three replicates were run for each sample, the values were averaged and the error bars represent the standard deviation (±SD).
# as §1
# S. aureus GFP [5] = test: MIC against planktonic cells, absorbance at 600 nm; format: cell-based, Staphylococcus aureus; details: Table 4; Sa GFP, 10% TSB and 0.1% glucose; absorbance 600 nm; mean of three biological replicates
# Procedure: as §2, §1
# P. aeruginosa PAO1 GFP [6] = test: MBEC, biofilm eradication, GFP fluorescence method; format: cell-based, Pseudomonas aeruginosa; details: Table 2, BM2 medium, mean of three biological replicates
# Procedure: as §2, with “Figure 1” for “Figure 3”, “against Pa PAO1” for “against Sa”, “GFP-expressing PAO1.” for “GFP-expressing Sa.”
# as §6, §1
# P. aeruginosa PAO1 [7] = format: cell-based, Pseudomonas aeruginosa; details: Table 5; PAO1, 1x BM2; biofilms on pegs, cells plated and counted; three biological replicates
# Procedure: as §3
# Figure 5 The MBEC values for the peptides were assessed against P. aeruginosa PAO1 in the presence of 1× BM2 medium. The eradication of biofilm cells was determined for the peptides using the counting of biofilm cells formed by Pa PAO1. Three biological replicates were run for each test sample, and the mean was calculated for counted cell values. Data points with error bars indicate the standard deviation (±SD).
# as §1
# P. aeruginosa PAO1 GFP [8] = test: MBIC, prevention of biofilm formation, GFP fluorescence method; format: cell-based, Pseudomonas aeruginosa; details: Table 2, BM2 medium, mean of three biological replicates
# Procedure: as §2, with “Figure 1” for “Figure 3”, “against Pa PAO1” for “against Sa”, “GFP-expressing PAO1.” for “GFP-expressing Sa.”
# as §6, §1
# P. aeruginosa PAO1 [9] = format: cell-based, Pseudomonas aeruginosa; details: Table 5; regular PAO1 (no GFP), 1x BM2; absorbance 600 nm; mean of three biological replicates
# Procedure: as §4, §5, §1
# S. aureus GFP [10] = test: MBIC, GFP fluorescence method; format: cell-based, Staphylococcus aureus; details: Table 4, Sa GFP, 10% TSB and 0.1% glucose, mean of three biological replicates
# Procedure: as §2, §1
SMILES,MBC Agar Plate (S. aureus GFP [1]) [µM],MBEC at 488 and 530 nm LD50 (S. aureus GFP [2]) [µmol/L],MBEC at 488 and 530 nm LD90 (S. aureus GFP [2]) [µmol/L],MBRC (CV at 595 nm) LD50 (P. aeruginosa PAO1 [3]) [µmol/L],MBIC (CV at 595 nm) LD50 (P. aeruginosa PAO1 [3]) [µmol/L],MBIC (CV at 595 nm) LD90 (P. aeruginosa PAO1 [3]) [µmol/L],MBRC (CV at 595 nm) LD90 (P. aeruginosa PAO1 [3]) [µmol/L],MIC at 600 nm LD50 (P. aeruginosa PAO1 GFP [4]) [µM],MIC at 600 nm LD90 (P. aeruginosa PAO1 GFP [4]) [µM],MIC at 600 nm LD50 (S. aureus GFP [5]) [µM],MIC at 600 nm LD90 (S. aureus GFP [5]) [µM],MBEC at 488 and 530 nm LD50 (P. aeruginosa PAO1 GFP [6]) [µmol/L],MBEC at 488 and 530 nm LD90 (P. aeruginosa PAO1 GFP [6]) [µmol/L],MBEC from Calgary Biofilm Device (CBD) LD50 (P. aeruginosa PAO1 [7]) [µmol/L],MBEC from Calgary Biofilm Device (CBD) LD90 (P. aeruginosa PAO1 [7]) [µmol/L],MBIC at 488 and 530 nm LD50 (P. aeruginosa PAO1 GFP [8]) [µmol/L],MBIC at 488 and 530 nm LD90 (P. aeruginosa PAO1 GFP [8]) [µmol/L],MIC at 600 nm LD50 (P. aeruginosa PAO1 [9]) [µM],MIC at 600 nm LD90 (P. aeruginosa PAO1 [9]) [µM],MBIC at 488 and 530 nm LD50 (S. aureus GFP [10]) [µmol/L],also measured
CC(C)C[C@H](NC(=O)[C@H](Cc1ccccc1)NC(=O)[C@@H]1CCCN1C(=O)[C@H](Cc1c[nH]c2ccccc12)NC(=O)[C@H](Cc1c[nH]c2ccccc12)NC(=O)[C@H](Cc1c[nH]c2ccccc12)NC(=O)[C@H](C)NC(=O)[C@H](Cc1ccccc1)NC(=O)[C@H](CCCNC(=N)N)NC(=O)[C@H](CCCNC(=N)N)NC(=O)[C@@H](N)C(C)C)C(=O)N[C@@H](CCCNC(=N)N)C(=O)N[C@@H](CCCNC(=N)N)C(N)=O [Tritrp-P5A] (H-VRRFAWWWPFLRR-NH2),4,2,4,32,8,8,32,4,8,1,2,64,64,32,128,4,8,4,8,1,MBIC at 488 and 530 nm LD90 (S. aureus GFP [10]): 4 µmol/L
CC(C)C[C@H](NC(=O)[C@H](Cc1ccccc1)NC(=O)[C@H](C)NC(=O)[C@H](Cc1c[nH]c2ccccc12)NC(=O)[C@H](Cc1c[nH]c2ccccc12)NC(=O)[C@H](Cc1c[nH]c2ccccc12)NC(=O)[C@@H]1CCCN1C(=O)[C@H](Cc1ccccc1)NC(=O)[C@H](CCCCN)NC(=O)[C@H](CCCCN)NC(=O)[C@@H](N)C(C)C)C(=O)N[C@@H](CCCCN)C(=O)N[C@@H](CCCCN)C(N)=O [Tritrp-P9A-Lys] (H-VKKFPWWWAFLKK-NH2),8,1,8,32,8,16,64,4,8,1,4,4,64,64,64,8,8,4,8,2,MBIC at 488 and 530 nm LD90 (S. aureus GFP [10]): 4 µmol/L
CC(C)C[C@H](NC(=O)[C@H](Cc1ccccc1)NC(=O)[C@H](C)NC(=O)[C@H](Cc1c[nH]c2ccccc12)NC(=O)[C@H](Cc1c[nH]c2ccccc12)NC(=O)[C@H](Cc1c[nH]c2ccccc12)NC(=O)[C@H](C)NC(=O)[C@H](Cc1ccccc1)NC(=O)[C@H](CCCCN)NC(=O)[C@H](CCCCN)NC(=O)[C@@H](N)C(C)C)C(=O)N[C@@H](CCCCN)C(=O)N[C@@H](CCCCN)C(N)=O [Tritrp-P59A-Lys] (H-VKKFAWWWAFLKK-NH2),4,2,4,64,4,8,64,4,4,2,2,32,128,64,128,4,4,4,8,2,MBIC at 488 and 530 nm LD90 (S. aureus GFP [10]): 2 µmol/L
CC(C)C[C@H](NC(=O)[C@H](Cc1ccccc1)NC(=O)[C@@H]1CCCN1C(=O)[C@H](Cc1ccccc1)NC(=O)[C@H](Cc1ccccc1)NC(=O)[C@H](Cc1ccccc1)NC(=O)[C@@H]1CCCN1C(=O)[C@H](Cc1ccccc1)NC(=O)[C@H](CCCNC(=N)N)NC(=O)[C@H](CCCNC(=N)N)NC(=O)[C@@H](N)C(C)C)C(=O)N[C@@H](CCCNC(=N)N)C(=O)N[C@@H](CCCNC(=N)N)C(N)=O [Tritrp-W678F] (H-VRRFPFFFPFLRR-NH2),8,2,4,128,64,>64,>128,32,>64,0.5,0.5,32,64,128,128,32,64,32,>64,1,MBIC at 488 and 530 nm LD90 (S. aureus GFP [10]): 1 µmol/L
